From ChEMBL document CHEMBL1129081, “New neplanocin analogues. 7. Synthesis and antiviral activity of 2-halo derivatives of neplanocin A” (J Med Chem, 1996)
≈ marks a conversion by molar mass, not a printed value.

Assays:
[1] = tested on: Vero; assay: Cytotoxic concentration required to reduce the number of Vero cells by 50%; assay type: cell-based; conditions: Chlorocebus sabaeus
[2] = tested on: Vesicular stomatitis virus; assay: Inhibitory concentration required to reduce virus -induced cytopathicity (VSV); assay type: functional, organism-based
[3] = tested on: Measles morbillivirus; assay: Inhibitory concentration required to reduce virus Plaque formation (measles); assay type: functional, organism-based
[4] = tested on: Mumps virus; assay: Inhibitory concentration required to reduce virus Plaque formation (mumps); assay type: functional, organism-based; conditions: Mumps orthorubulavirus
[5] = tested on: Vero; assay: Antiviral and cytostatic effects against Reo-1 virus expressed in Vero cells; assay type: functional, cell-based; conditions: Chlorocebus sabaeus
[6] = tested on: CCRF-CEM; assay: Antiviral and cytostatic effects againstTK-VZV virus expressed in CEM cells; assay type: functional, cell-based; conditions: Homo sapiens
[7] = tested on: HeLa; assay: Antiviral and cytostatic effects againstTK-VZV virus expressed in Hela cells; assay type: functional, cell-based; conditions: Homo sapiens
[8] = tested on: E6SM; assay: Antiviral and cytostatic effects against VV virus expressed in E6SM cells; assay type: functional, cell-based; conditions: Homo sapiens
[9] = tested on: HeLa; assay: Antiviral and cytostatic effects against Coxsackie B4 virus expressed in HeLa cells; assay type: functional, cell-based; conditions: Homo sapiens
[10] = tested on: MOLT-4; assay: Antiviral and cytostatic effects againstTK-VZV virus expressed in MOLT-4 cells; assay type: functional, cell-based; conditions: Homo sapiens
[11] = tested on: Vero; assay: Antiviral and cytostatic effects against Tacaribe virus expressed in Vero cells; assay type: functional, cell-based; conditions: Chlorocebus sabaeus
[12] = tested on: E6SM; assay: Antiviral and cytostatic effects against CMV (Davis) virus expressed in […]; assay type: functional, cell-based; conditions: Homo sapiens
[13] = tested on: E6SM; assay: Antiviral and cytostatic effects against VSV virus expressed in E6SM cells; assay type: functional, cell-based; conditions: Homo sapiens
[14] = tested on: E6SM; assay: Antiviral and cytostatic effects against Hsv-2(G) virus expressed in E6SM cells; assay type: functional, cell-based; conditions: Homo sapiens
[15] = tested on: Vero; assay: Antiviral and cytostatic effects against Sindbis virus expressed in Vero cells; assay type: functional, cell-based; conditions: Chlorocebus sabaeus
[16] = tested on: L1210; assay: Antiviral and cytostatic effects againstTK-VZV virus expressed in L1210 cells; assay type: functional, cell-based; conditions: Mus musculus
[17] = tested on: E6SM; assay: Antiviral and cytostatic effects againstTK-VZV virus expressed in E6SM cells; assay type: functional, cell-based; conditions: Homo sapiens
[18] = tested on: Vero; assay: Antiviral and cytostatic effects against forest virus expressed in Vero cells; assay type: functional, cell-based; conditions: Chlorocebus sabaeus
[19] = tested on: HeLa; assay: Antiviral and cytostatic effects against VSV virus expressed in Hela cells; assay type: functional, cell-based; conditions: Homo sapiens
[20] = tested on: HEL; assay: Antiviral and cytostatic effects against TK-VZV virus expressed in HEL cells; assay type: functional, cell-based; conditions: Homo sapiens
[21] = tested on: HEL; assay: Antiviral and cytostatic effects against CMV (AD-169) virus expressed in HEL cells; assay type: functional, cell-based; conditions: Homo sapiens
[22] = tested on: Vero; assay: Antiviral and cytostatic effects against Junin virus expressed in Vero cells; assay type: functional, cell-based; conditions: Chlorocebus sabaeus
[23] = tested on: FM3A; assay: Antiviral and cytostatic effects againstTK-VZV virus expressed in FM3A cells; assay type: functional, cell-based; conditions: Mus musculus
[24] = tested on: Vero; assay: Antiviral and cytostatic effects against Parainfluenza-3 virus expressed in Vero cells; assay type: functional, cell-based; conditions: Chlorocebus sabaeus
[25] = tested on: E6SM; assay: Antiviral and cytostatic effects against Hsv-1(KOS) virus expressed in E6SM cells; assay type: functional, cell-based; conditions: Homo sapiens
[26] = tested on: HeLa; assay: Antiviral and cytostatic effects against Polio-1 virus expressed in Hela cells; assay type: functional, cell-based; conditions: Homo sapiens
[27] = tested on: Vero; assay: Antiviral and cytostatic effects againstTK-VZV virus expressed in Vero cells; assay type: functional, cell-based; conditions: Chlorocebus sabaeus
[28] = tested on: HEL; assay: Antiviral and cytostatic effects against VZV(Oka,YS) virus expressed in HEL cells; assay type: functional, cell-based; conditions: Homo sapiens
[29] = tested on: HEL; assay: Antiviral and cytostatic effects againstTK-VZV virus expressed in HEL cells; assay type: functional, cell-based; conditions: Homo sapiens
[30] = tested on: E6SM; assay: Antiviral and cytostatic effects against TK HSV-1( B2006) virus expressed in E6SM cells; assay type: functional, cell-based; conditions: Homo sapiens

## C[C@H](O)C1=C[C@@H](n2cnc3c(N)ncnc32)[C@H](O)[C@@H]1O
[1]
  IC50: > 200 mg/L
[2]
  IC50: 0.25 mg/L (≈ 0.902 µM)
[3]
  IC50: 0.09 mg/L (≈ 0.325 µM)
[4]
  IC50: 0.19 mg/L (≈ 0.685 µM)

## C[C@H](O)C1=C[C@@H](n2cnc3c(N)nc(F)nc32)[C@H](O)[C@@H]1O
[1]
  IC50: > 200 mg/L
[2]
  IC50: 16 mg/L (≈ 54.2 µM)
[3]
  IC50: > 25 mg/L
[4]
  IC50: 7 mg/L (≈ 23.7 µM)

## Nc1nc(Cl)nc2c1ncn2[C@@H]1C=C(CO)[C@@H](O)[C@H]1O
[1]
  IC50: > 200 mg/L
[2]
  IC50: 63 mg/L (≈ 212 µM)
[3]
  IC50: 29 mg/L (≈ 97.4 µM)
[4]
  IC50: > 25 mg/L

## Nc1ncnc2c1ncn2[C@@H]1C=C[C@@H](O)[C@H]1O
[1]
  IC50: > 200 mg/L
[2]
  IC50: 1 mg/L (≈ 4.29 µM)
[3]
  IC50: 0.47 mg/L (≈ 2.02 µM)
[4]
  IC50: 1.1 mg/L (≈ 4.72 µM)

## Nc1nc(Cl)nc2c1ncn2[C@@H]1C=C[C@@H](O)[C@H]1O
[1]
  IC50: > 200 mg/L
[3]
  IC50: > 25 mg/L
[4]
  IC50: > 25 mg/L

## Nc1nc(F)nc2c1ncn2[C@@H]1C=C[C@@H](O)[C@H]1O
[1]
  IC50: > 200 mg/L
[3]
  IC50: > 25 mg/L
[4]
  IC50: 21 mg/L (≈ 83.6 µM)

## Nc1nc(F)nc2c1ncn2[C@@H]1C=C(CO)[C@@H](O)[C@H]1O
[5]
  IC50: 0.7 mg/L (≈ 2.49 µM)
[6]
  IC50: 1.75 mg/L (≈ 6.22 µM)
[7]
  IC50: 100 mg/L (≈ 356 µM)
[1]
  IC50: > 200 mg/L
[8]
  IC50: 0.1 mg/L (≈ 0.356 µM)
[9]
  IC50: > 100 mg/L
[10]
  IC50: 0.5 mg/L (≈ 1.78 µM)
[11]
  IC50: 0.7 mg/L (≈ 2.49 µM)
[12]
  IC50: > 5 mg/L
[13]
  IC50: 1 mg/L (≈ 3.56 µM)
[14]
  IC50: > 40 mg/L
[15]
  IC50: 1 mg/L (≈ 3.56 µM)
[16]
  IC50: 0.25 mg/L (≈ 0.889 µM)
[17]
  IC50: 40 mg/L (≈ 142 µM)
[18]
  IC50: > 100 mg/L
[19]
  IC50: 0.4 mg/L (≈ 1.42 µM)
[20]
  IC50: 7 mg/L (≈ 24.9 µM)
[21]
  IC50: 1.5 mg/L (≈ 5.33 µM)
[22]
  IC50: 0.6 mg/L (≈ 2.13 µM)
[23]
  IC50: 0.19 mg/L (≈ 0.676 µM)
[24]
  IC50: 2 mg/L (≈ 7.11 µM)
[25]
  IC50: > 40 mg/L
[2]
  IC50: 0.25 mg/L (≈ 0.889 µM)
[26]
  IC50: > 40 mg/L
[27]
  IC50: 100 mg/L (≈ 356 µM)
[28]
  IC50: 10 mg/L (≈ 35.6 µM)
[29]
  IC50: 2 mg/L (≈ 7.11 µM)
[3]
  IC50: 0.03 mg/L (≈ 0.107 µM)
[30]
  IC50: > 40 mg/L
[4]
  IC50: 1.2 mg/L (≈ 4.27 µM)

## Nc1ncnc2c1ncn2[C@@H]1C=C(CO)[C@@H](O)[C@H]1O [NEOPLANOCIN A]
[5]
  IC50: 0.7 mg/L (≈ 2.66 µM)
[6]
  IC50: 1.12 mg/L (≈ 4.25 µM)
[7]
  IC50: 40 mg/L (≈ 152 µM)
[1]
  IC50: 155 mg/L (≈ 589 µM)
[8]
  IC50: 0.7 mg/L (≈ 2.66 µM)
[9]
  IC50: > 40 mg/L
[10]
  IC50: 2.34 mg/L (≈ 8.89 µM)
[11]
  IC50: 1.5 mg/L (≈ 5.7 µM)
[12]
  IC50: 0.4 mg/L (≈ 1.52 µM)
[13]
  IC50: 7 mg/L (≈ 26.6 µM)
[14]
  IC50: > 40 mg/L
[15]
  IC50: 7 mg/L (≈ 26.6 µM)
[16]
  IC50: 0.027 mg/L (≈ 0.103 µM)
[17]
  IC50: 70 mg/L (≈ 266 µM)
[18]
  IC50: > 40 mg/L
[19]
  IC50: 2 mg/L (≈ 7.6 µM)
[20]
  IC50: 9 mg/L (≈ 34.2 µM)
[22]
  IC50: 0.5 mg/L (≈ 1.9 µM)
[23]
  IC50: 0.022 mg/L (≈ 0.0836 µM)
[24]
  IC50: 2 mg/L (≈ 7.6 µM)
[25]
  IC50: 70 mg/L (≈ 266 µM)
[2]
  IC50: 0.25 mg/L (≈ 0.95 µM)
[26]
  IC50: > 40 mg/L
[27]
  IC50: 40 mg/L (≈ 152 µM)
[28]
  IC50: 10 mg/L (≈ 38 µM)
[29]
  IC50: > 20 mg/L
[3]
  IC50: 0.1 mg/L (≈ 0.38 µM)
[30]
  IC50: 20 mg/L (≈ 76 µM)
[4]
  IC50: 0.11 mg/L (≈ 0.418 µM)
